Test results from paper PMC10600007, “Structures illustrate step-by-step mitochondrial transcription initiation” (Nature, 2023).

Columns and labels:
[1] = molecular target: T1, y-mtRNAP–Mtf1 (ΔN100 y-mtRNAP with Mtf1) (Saccharomyces cerevisiae, UniProt P13433); assay: cryo-EM structure (IC2, […] Å); type: binding; conditions: pre-melted 33-bp bubble promoter DNA; Mg2+; pH 7.0; 4 °C; two GTP at +1 (P site) and +2 (N site) of polymerase active site
T1 construct: gene RPO41; RPO41 lacking 100 N-terminal residues, His6 tag removed by TEV; Mtf1 His6-tagged (removal not described); both from E. coli; complex assembled on pre-melted promoter DNA; with Mitochondrial transcription factor 1
T1 sequence (P13433 101-1351): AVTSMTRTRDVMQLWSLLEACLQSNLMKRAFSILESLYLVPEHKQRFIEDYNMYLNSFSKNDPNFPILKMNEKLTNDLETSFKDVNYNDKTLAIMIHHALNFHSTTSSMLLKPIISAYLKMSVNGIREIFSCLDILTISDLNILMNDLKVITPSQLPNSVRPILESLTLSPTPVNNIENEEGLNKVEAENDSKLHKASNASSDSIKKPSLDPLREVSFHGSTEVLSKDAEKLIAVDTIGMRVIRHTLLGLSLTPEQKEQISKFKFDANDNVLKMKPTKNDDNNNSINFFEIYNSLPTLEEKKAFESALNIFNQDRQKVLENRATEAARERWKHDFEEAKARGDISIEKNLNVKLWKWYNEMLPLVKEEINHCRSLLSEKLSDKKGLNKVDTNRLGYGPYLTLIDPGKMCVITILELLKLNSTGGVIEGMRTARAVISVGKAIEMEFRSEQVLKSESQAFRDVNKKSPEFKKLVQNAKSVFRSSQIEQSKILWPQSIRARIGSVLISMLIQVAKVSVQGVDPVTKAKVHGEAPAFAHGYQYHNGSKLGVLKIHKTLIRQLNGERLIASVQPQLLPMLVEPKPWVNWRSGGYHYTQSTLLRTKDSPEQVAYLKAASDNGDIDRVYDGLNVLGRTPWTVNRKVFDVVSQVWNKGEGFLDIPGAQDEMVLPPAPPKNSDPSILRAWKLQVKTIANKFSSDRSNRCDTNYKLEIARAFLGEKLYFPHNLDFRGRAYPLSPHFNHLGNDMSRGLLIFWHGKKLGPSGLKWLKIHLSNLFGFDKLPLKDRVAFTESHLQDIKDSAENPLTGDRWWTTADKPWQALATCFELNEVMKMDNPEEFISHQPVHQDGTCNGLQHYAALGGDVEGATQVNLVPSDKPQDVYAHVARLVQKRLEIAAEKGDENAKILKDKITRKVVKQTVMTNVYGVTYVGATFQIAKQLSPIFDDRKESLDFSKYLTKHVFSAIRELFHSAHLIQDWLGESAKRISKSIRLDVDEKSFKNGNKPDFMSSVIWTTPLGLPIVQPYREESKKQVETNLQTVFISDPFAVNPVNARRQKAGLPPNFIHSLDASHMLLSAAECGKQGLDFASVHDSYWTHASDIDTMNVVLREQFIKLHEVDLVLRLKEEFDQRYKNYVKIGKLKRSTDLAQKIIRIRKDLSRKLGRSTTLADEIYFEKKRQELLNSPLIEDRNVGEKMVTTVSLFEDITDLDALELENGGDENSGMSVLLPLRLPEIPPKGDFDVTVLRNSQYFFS
T1 sequence (P14908 2-341 partner): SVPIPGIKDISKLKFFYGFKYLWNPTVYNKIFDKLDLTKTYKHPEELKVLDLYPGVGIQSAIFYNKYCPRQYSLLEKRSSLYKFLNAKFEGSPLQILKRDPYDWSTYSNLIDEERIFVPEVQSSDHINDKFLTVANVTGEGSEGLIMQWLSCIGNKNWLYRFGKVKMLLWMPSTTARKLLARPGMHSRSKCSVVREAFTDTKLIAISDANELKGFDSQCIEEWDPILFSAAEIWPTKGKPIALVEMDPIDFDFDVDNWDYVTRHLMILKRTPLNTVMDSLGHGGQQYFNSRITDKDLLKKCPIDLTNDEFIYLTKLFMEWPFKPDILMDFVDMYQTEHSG

[2] = molecular target: T2, ΔN100 y-mtRNAP (yeast mitochondrial RNA polymerase, Rpo41, 100 amino-terminal residues deleted) (S. cerevisiae, UniProt P13433 101-1351); assay: cryo-EM structure; PmIC of ΔN100 y-mtRNAP, Mtf1 and pre-melted bubble promoter DNA (molar ratio 1:1.2:1.2, 2 h, 4 °C), purified by SEC, then incubated with NTPs or pppGpG 2 h at 4 °C to give IC2, IC4-IC8 and IC8'; 50 mM Bis-tris propane pH 7.0, 100 mM NaCl, 5 mM MgCl2, 1 mM EDTA, 2 mM DTT; conditions: both partners purified
T2 construct: S. cerevisiae mitochondrial RNA polymerase Rpo41 (y-mtRNAP), UniProt P13433; 100 amino-terminal residues deleted; end residue S1351; Plasmid ProEXHTB; In the structures the chain is traced only from I386 (A407 in IC4) to S1351 with gaps; source: E. coli BL21 RIL Codon Plus, purified (DEAE/Ni-Sepharose, heparin, TEV cleavage, second Ni-Sepharose flow-through)
T2 sequence (looked up): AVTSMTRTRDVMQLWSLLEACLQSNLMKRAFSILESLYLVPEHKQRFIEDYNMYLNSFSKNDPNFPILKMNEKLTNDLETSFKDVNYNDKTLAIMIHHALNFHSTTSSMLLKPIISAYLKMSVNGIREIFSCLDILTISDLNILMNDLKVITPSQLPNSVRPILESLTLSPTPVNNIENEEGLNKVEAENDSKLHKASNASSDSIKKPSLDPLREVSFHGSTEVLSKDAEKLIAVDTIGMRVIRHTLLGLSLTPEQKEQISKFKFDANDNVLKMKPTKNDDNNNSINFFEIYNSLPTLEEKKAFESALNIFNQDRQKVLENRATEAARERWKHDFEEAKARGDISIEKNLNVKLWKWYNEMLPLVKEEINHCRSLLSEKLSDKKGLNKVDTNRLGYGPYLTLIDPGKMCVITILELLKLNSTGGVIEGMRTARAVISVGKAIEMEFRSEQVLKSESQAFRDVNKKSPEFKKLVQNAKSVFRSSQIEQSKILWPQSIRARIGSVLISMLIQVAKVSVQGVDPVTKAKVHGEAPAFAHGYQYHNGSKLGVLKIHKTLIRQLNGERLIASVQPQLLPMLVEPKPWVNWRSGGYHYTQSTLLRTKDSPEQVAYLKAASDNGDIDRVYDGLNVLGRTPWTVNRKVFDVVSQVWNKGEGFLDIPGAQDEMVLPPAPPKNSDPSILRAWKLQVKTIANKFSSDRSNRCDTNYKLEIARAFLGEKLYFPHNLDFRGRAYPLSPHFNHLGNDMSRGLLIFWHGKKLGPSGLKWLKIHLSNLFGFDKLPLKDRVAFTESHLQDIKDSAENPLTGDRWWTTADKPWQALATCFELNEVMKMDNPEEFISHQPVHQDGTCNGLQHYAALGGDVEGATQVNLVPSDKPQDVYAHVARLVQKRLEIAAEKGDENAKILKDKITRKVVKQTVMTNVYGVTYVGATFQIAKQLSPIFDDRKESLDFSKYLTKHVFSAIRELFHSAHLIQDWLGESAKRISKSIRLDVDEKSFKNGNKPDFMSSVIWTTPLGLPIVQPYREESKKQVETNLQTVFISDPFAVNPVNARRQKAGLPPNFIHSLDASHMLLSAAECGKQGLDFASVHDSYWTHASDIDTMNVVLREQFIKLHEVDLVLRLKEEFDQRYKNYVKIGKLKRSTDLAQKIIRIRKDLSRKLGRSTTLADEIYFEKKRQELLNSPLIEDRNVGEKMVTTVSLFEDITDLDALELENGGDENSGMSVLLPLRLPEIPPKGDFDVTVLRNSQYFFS

| Molecule | cryo-EM structure (IC2, 3.47 Å) [1] | binding result [2] |
| --- | --- | --- |
| Nc1nc2c(ncn2[C@@H]2O[C@H](COP(=O)(O)OP(=O)(O)OP(=O)(O)O)[C@@H](O)[C@H]2O)c(=O)[nH]1 [GTP] | IC2 was captured with two GTP molecules bound at the transcription start site poised for catalysis |  |
| Mtf1 (yeast mitochondrial transcription factor) (natural protein, S. cerevisiae, S. cerevisiae Mtf1, mitochondrial transcription factor; wild type; traced in the structures from S2 to at most G341 (end residue); Plasmid pTrcHisC; No removal of the His6 tag is described; N-terminal domain residues 1-252, C-terminal domain residues 255-341 are named, so the whole protein is likely; source: E. coli BL21, purified (DEAE/Ni-Sepharose, heparin-Sepharose)) SVPIPGIKDISKLKFFYGFKYLWNPTVYNKIFDKLDLTKTYKHPEELKVLDLYPGVGIQSAIFYNKYCPRQYSLLEKRSSLYKFLNAKFEGSPLQILKRDPYDWSTYSNLIDEERIFVPEVQSSDHINDKFLTVANVTGEGSEGLIMQWLSCIGNKNWLYRFGKVKMLLWMPSTTARKLLARPGMHSRSKCSVVREAFTDTKLIAISDANELKGFDSQCIEEWDPILFSAAEIWPTKGKPIALVEMDPIDFDFDVDNWDYVTRHLMILKRTPLNTVMDSLGHGGQQYFNSRITDKDLLKKCPIDLTNDEFIYLTKLFMEWPFKPDILMDFVDMYQTEHSG |  | binds |
